From the supplement of paper PMC10331698
± gives the standard deviation of the averaged measurements.

Columns and labels:
[1] = compound: C=CC(=O)OCCC(F)(F)C(F)(F)C(F)(F)C(F)(F)C(F)(F)C(F)(F)C(F)(F)C(F)(F)F [8:2 Fluorotelomer acrylate]; experiment: level (log10 ratio to DMSO vehicle control); higher = higher biomarker level / cell amount than vehicle control; details: in DMSO
Method: (§1)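 BioMAP Diversity Plus panel of 12 human primary cell co-culture systems (3C, 4H, LPS, SAg, BT, BF4T, BE3C, CASM3C, HDF3CGF, KF3CT, MyoF, Mphg). Compounds were added 1 h before stimulation and left for 24 h (MyoF 48 h; BT 72 h for soluble read-outs or 6 d for IgG). Biomarkers were read by ELISA, cytotoxicity by SRB, PBMC viability and proliferation by Alamar Blue. Each well value was divided by the mean of 8 DMSO control wells on the same plate and log10 transformed; duplicate blinded samples were tested at 4 concentrations.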

[2] = compound: O=C(Cl)C(F)(F)C(F)(F)C(F)(F)C(=O)Cl [Hexafluoroglutaryl chloride]; experiment: as above; details: in DMSO
Method: as §1

Test System | level (log10) ([1]; 6700 nM) | level (log10) ([1]; 20000 nM) | level (log10) ([1]; 60000 nM) | level (log10) ([2]; 6700 nM) | level (log10) ([2]; 20000 nM) | level (log10) ([2]; 60000 nM)
KF3CT:MMP-9 | -0.042 | -0.0885 ± 0.044 | -0.132 ± 0.047 | -0.0515 ± 0.013 | -0.0255 ± 0.028 | -0.024 ± 0.03
HDF3CGF:Collagen I | -0.025 ± 0.0028 | -0.008 ± 0.0071 | 0.0325 ± 0.018 | -0.025 ± 0.023 | 0.002 | 0.0065 ± 0.028
KF3CT:IL-1alpha | 0.0005 ± 0.011 | -0.0245 ± 0.00071 | -0.0355 ± 0.04 | -0.0085 ± 0.0078 | 0.0095 ± 0.013 | -0.012 ± 0.018
HDF3CGF:Collagen III | 0.032 ± 0.024 | 0.0315 ± 0.019 | 0.086 ± 0.014 | -0.027 ± 0.0028 | -0.06 ± 0.031 | -0.023 ± 0.028
lMphg:SRB | -0.003 ± 0.0085 | -0.0105 ± 0.016 | -0.004 ± 0.034 | 0.008 ± 0.0057 | 0.012 | 0.0075 ± 0.0092
3C:CD54/ICAM-1 | -0.009 ± 0.02 | -0.0205 ± 0.018 | 0.002 ± 0.0085 | 0.002 ± 0.0014 | -0.006 ± 0.013 | 0.0025 ± 0.035
lMphg:CCL2/MCP-1 | 0.0035 ± 0.021 | -0.0025 ± 0.0064 | -0.0235 ± 0.039 | -0.005 ± 0.0099 | -0.0025 ± 0.019 | 0.0125 ± 0.015
HDF3CGF:TIMP-2 | -0.014 ± 0.027 | -0.0405 ± 0.0064 | -0.0295 ± 0.0092 | -0.0215 ± 0.086 | -0.0155 ± 0.088 | -0.025 ± 0.075
MyoF:CXCL8/IL-8 | -0.003 ± 0.02 | 0.008 ± 0.018 | 0.029 ± 0.0057 | -0.017 ± 0.0071 | 0.014 ± 0.011 | 0.03 ± 0.0085
MyoF:TIMP-1 | -0.0615 ± 0.011 | -0.039 ± 0.025 | -0.014 ± 0.0042 | -0.04 ± 0.057 | -0.024 ± 0.027 | 0.0175 ± 0.04
HDF3CGF:EGFR | -0.003 ± 0.041 | -0.028 ± 0.031 | 0.006 ± 0.011 | -0.0195 ± 0.012 | -0.0115 ± 0.011 | -0.01 ± 0.057
HDF3CGF:SRB | -0.02 ± 0.0071 | -0.0305 ± 0.037 | 0.003 ± 0.0014 | -0.004 ± 0.0085 | 0.0295 ± 0.0035 | 0.007 ± 0.014
HDF3CGF:M-CSF | -0.0205 ± 0.011 | -0.0375 ± 0.0021 | -0.0165 ± 0.013 | -0.003 ± 0.02 | -0.0035 ± 0.016 | 0 ± 0.0099
3C:CD62E/E-Selectin | -0.0165 ± 0.011 | -0.0145 ± 0.022 | 0.001 ± 0.035 | -0.0315 ± 0.049 | -0.02 ± 0.038 | -0.0025 ± 0.012
CASM3C:LDLR | -0.008 ± 0.011 | -0.0135 ± 0.011 | -0.002 ± 0.0099 | -0.052 ± 0.03 | -0.0235 ± 0.025 | 0.0035 ± 0.035
lMphg:CCL3/MIP-1alpha | 0.056 ± 0.011 | 0.0485 ± 0.047 | 0.0325 ± 0.025 | 0.001 ± 0.069 | 0.012 ± 0.034 | 0.0145 ± 0.073
HDF3CGF:CD54/ICAM-1 | 0.034 ± 0.04 | 0.044 ± 0.059 | 0.0395 ± 0.088 | -0.0015 ± 0.0035 | -0.007 ± 0.0042 | -0.001 ± 0.0099
CASM3C:IL-6 | -0.023 ± 0.0099 | -0.017 ± 0.027 | 0.0105 ± 0.05 | 0.006 ± 0.014 | -0.0145 ± 0.021 | 0.031 ± 0.017
lMphg:CXCL8/IL-8 | -0.009 ± 0.052 | 0.019 ± 0.035 | 0.0665 ± 0.029 | 0.023 ± 0.011 | 0.027 ± 0.018 | 0.0625 ± 0.05
lMphg:CD106/VCAM-1 | 0 ± 0.013 | -0.015 ± 0.0014 | -0.0045 ± 0.03 | -0.0075 ± 0.0078 | -0.0015 ± 0.037 | -0.0145 ± 0.042

Test System | level (log10) ([1]; 6700 nM) | level (log10) ([1]; 20000 nM) | level (log10) ([1]; 60000 nM) | level (log10) ([2]; 6700 nM) | level (log10) ([2]; 20000 nM) | level (log10) ([2]; 60000 nM)
3C:CD142/Tissue Factor | 0.0065 ± 0.029 | 0.0115 ± 0.0035 | 0.0155 ± 0.021 | -0.04 ± 0.042 | -0.0435 ± 0.0092 | -0.07 ± 0.092
lMphg:IL-1alpha | -0.012 | -0.007 ± 0.021 | 0.035 ± 0.059 | -0.0255 ± 0.052 | -0.041 ± 0.086 | -0.03 ± 0.082
BE3C:PAI-I | -0.0355 ± 0.0092 | -0.018 | 0.0055 ± 0.025 | -0.0285 ± 0.053 | -0.0715 ± 0.059 | -0.0935 ± 0.094
CASM3C:Proliferation | 0.006 ± 0.021 | -0.05 ± 0.013 | -0.045 ± 0.037 | 0.004 ± 0.0042 | -0.012 ± 0.027 | -0.031 ± 0.03
BE3C:uPA | -0.0175 ± 0.005 | -0.008 ± 0.0028 | -0.001 ± 0.017 | -0.0015 ± 0.0064 | -0.004 ± 0.0028 | -0.0035 ± 0.0064
CASM3C:Serum Amyloid A | -0.0075 ± 0.013 | -0.0125 ± 0.022 | 0.018 ± 0.028 | -0.022 ± 0.038 | -0.008 ± 0.0042 | -0.002 ± 0.0014
MyoF:Collagen III | -0.0105 ± 0.0078 | -0.019 ± 0.0085 | -0.03 ± 0.0028 | -0.0115 ± 0.0078 | -0.004 ± 0.035 | -0.003 ± 0.021
KF3CT:CXCL10/IP-10 | -0.007 ± 0.0057 | -0.0125 ± 0.0021 | -0.0135 ± 0.00071 | -0.0105 ± 0.013 | 0.0045 ± 0.0035 | -0.0025 ± 0.015
lMphg:CD69 | -0.054 ± 0.017 | -0.0565 ± 0.023 | 0.002 ± 0.079 | -0.021 ± 0.011 | -0.032 ± 0.018 | -0.0135 ± 0.029
CASM3C:CD106/VCAM-1 | -0.033 ± 0.0042 | -0.039 ± 0.037 | 0.004 ± 0.025 | -0.017 ± 0.03 | -0.013 ± 0.024 | 0.0025 ± 0.047
lMphg:CD40 | -0.014 ± 0.025 | -0.0065 ± 0.0078 | -0.0225 ± 0.021 | 0.036 ± 0.037 | 0.0115 ± 0.022 | -0.002 ± 0.011
CASM3C:HLA-DR | -0.0145 ± 0.0078 | -0.0045 ± 0.0021 | 0.022 ± 0.013 | -0.0095 ± 0.0035 | -0.0025 ± 0.033 | 0.002 ± 0.0057
KF3CT:SRB | -0.0005 ± 0.005 | 0.002 ± 0.0085 | 0.0105 ± 0.013 | -0.0015 ± 0.005 | 0.005 ± 0.0014 | 0.0055 ± 0.0064
HDF3CGF:CD106/VCAM-1 | 0.0005 ± 0.022 | 0.011 ± 0.0071 | 0.007 ± 0.0085 | -0.013 ± 0.0085 | 0.0205 ± 0.049 | -0.041 ± 0.014
HDF3CGF:CXCL10/IP-10 | 0.01 ± 0.021 | 0.003 ± 0.037 | 0.01 ± 0.028 | -0.013 ± 0.021 | -0.01 ± 0.016 | -0.0235 ± 0.0035
CASM3C:CXCL8/IL-8 | -0.0185 ± 0.012 | -0.0165 ± 0.00071 | -0.0085 ± 0.00071 | 0.0095 ± 0.021 | 0.006 ± 0.016 | 0.0005 ± 0.052
HDF3CGF:CXCL8/IL-8 | -0.01 ± 0.0085 | -0.0105 ± 0.0035 | -0.0095 ± 0.026 | 0.0025 ± 0.012 | -0.0015 ± 0.005 | 0.013 ± 0.018
MyoF:Collagen IV | -0.022 ± 0.0042 | -0.002 ± 0.0057 | -0.0135 ± 0.036 | -0.021 ± 0.099 | -0.0295 ± 0.11 | -0.0075 ± 0.069
BE3C:Keratin 8/18 | -0.013 ± 0.0014 | -0.014 ± 0.0085 | 0.0085 ± 0.033 | 0.0005 ± 0.005 | -0.0195 ± 0.0078 | -0.0135 ± 0.022
MyoF:SRB | 0 ± 0.0014 | -0.001 ± 0.0028 | -0.0095 ± 0.0092 | 0 ± 0.011 | 0.003 ± 0.0028 | -0.003 ± 0.018
